Test system: patients with ischemic strokes
Test: Phase 2 clinical study of spray in patients with ischemic strokes
Format: in vivo, human
Details: for LCCA (far-wall): Maximal IMT of left common carotid artery / LCCA (near-wall): Maximal IMT of left common carotid artery / LICA (far-wall): Maximal IMT of left internal carotid artery / LICA (near-wall): Maximal IMT of left internal carotid artery / RCCA (far-wall): Maximal IMT of right common carotid artery / RCCA (near-wall): Maximal IMT of right common carotid artery / RICA (far-wall): Maximal IMT of right internal carotid artery / RICA (near-wall): Maximal IMT of right internal carotid artery: ultrasonography
Description: Each patient enrolled in Group A was administered the investigational drug in a double-blind manner for 16 weeks starting between 3 and 60 days after the onset of stroke symptoms (Day 1 of the study). The patients and/or their caregivers were instructed how to apply the investigational drug accurately so that patients or their caregivers would administer 20 sprays/dose of either the investigational drug or placebo twice daily (approximately every 12 hours) for a total daily dose of 280 mg of investigational drug. The 20 sprays of investigational drug were administered as follows: 4 sprays around the neck, 2 sprays to the left shoulder, 2 sprays to the right shoulder, 6 sprays to the chest, 3 sprays to the left leg, and 3 sprays to the right leg. Each spray was sprayed on a different area of the skin to reach maximum absorption. The patient would wait for at least 5 minutes to dress after the last spray so that the skin became completely dry.
Patients were asked to return to the study site at Weeks 4, 8, 12, and 16 for efficacy and safety assessments. After the Week 16 assessments had been performed, patients would start the open-label period of the study the next day and receive active treatment in an open-label manner through the end of the study (EOS) at Week 32. That is, patients who were receiving active treatment would continue to receive active treatment, and patients who were receiving placebo would switch to active treatment for the remaining 16 weeks of the study. Patients would receive only 1 dose of investigational drug on the Week 16 visit day. Patients would return to the study site at Week 24 and Week 32 (EOS) for efficacy and safety assessments. An Early Termination visit would occur if the patient was discontinued from the study prematurely. Patients would have a follow-up visit approximately 14 days after the Early Termination visit or the Week 32 (EOS) visit.
The spray bottle deposits […] of spray solution and 7 mg 2-(diethylamino)ethyl acetoxybenzoate free base per spray on the skin. Subjects were to apply each spray to a different skin area around the neck, chest, legs and arms based on the randomized dose level assigned.
The treatment was administered twice daily (approximately every 12 hours) starting on Day 1 of the study through the Week 16 visit. Each spray was sprayed on a different area of the skin to reach maximum absorption.
Group A administered the 20 sprays of investigational drug as follows: 4 sprays around the neck, 2 sprays to the left shoulder, 2 sprays to the right shoulder, 6 sprays to the chest, 3 sprays to the left leg, and 3 sprays to the right leg twice daily for a total of 40 sprays (280 mg)/day. Each spray was sprayed on a different area of the skin to reach maximum absorption.
(§1) Group B administered the investigational drug as follows: 2 sprays to the front of the neck, 1 spray to the left side of the neck, 1 spray to the right side of the neck, 6 sprays to the chest close to the neck twice daily for a total of 20 sprays (140 mg)/day. Each spray was sprayed on a different area of the skin to reach maximum absorption.
as §1, with “C” for “B”, “1 spray” for “2 sprays”, “2” for “6”, “chest” for “chest close to the neck”, “10” for “20”, “(70 mg/day).” for “(140 mg)/day.”
The primary efficacy endpoint is the mRS score at Week 16 dichotomized as ‘success’ (0 to 2) or failure (>2) for all randomized patients at Week 16.
The mRS score was assessed at screening; Day 1 (baseline); Weeks 4, 8, 12, 16, 24, and 32; Early Termination Visit (if applicable) and Follow-Up Visit.
The mRS score measures the patient's functional level of activity and is dichotomized as a favorable outcome (score=0-2) versus unfavorable (score […]). […]

[1] = 5 Sprays (35 mg/dose bid), Baseline
[2] = 5 Sprays (35 mg/dose bid), Week 4
[3] = 5 Sprays (35 mg/dose bid), Week 8
[4] = 5 Sprays (35 mg/dose bid), Week 16
[5] = 5 Sprays (35 mg/dose bid), Week 24
[6] = 5 Sprays (35 mg/dose bid), Week 32
[7] = 5 Sprays (35 mg/dose bid), baseline
[8] = 10 Sprays (70 mg/dose bid), Baseline
[9] = 10 Sprays (70 mg/dose bid), Week 4
[10] = 10 Sprays (70 mg/dose bid), Week 8
[11] = 10 Sprays (70 mg/dose bid), Week 16

CCN(CC)CCOC(=O)c1ccccc1OC(C)=O.Cl [Compound-1]
safety and tolerability (35 mg, 70 mg, and 140 mg BID, topical spray): safe and were generally well tolerated
LCCA (far-wall): Maximal IMT of left common carotid artery [1]: 6.2 ± 1.6 mm
LCCA (near-wall): Maximal IMT of left common carotid artery [1]: 7.3 ± 2.0 mm
LICA (far-wall): Maximal IMT of left internal carotid artery [1]: 5.3 ± 1.3 mm
LICA (near-wall): Maximal IMT of left internal carotid artery [1]: 6.3 ± 2.1 mm
RCCA (far-wall): Maximal IMT of right common carotid artery [1]: 7.1 ± 2.2 mm
RCCA (near-wall): Maximal IMT of right common carotid artery [1]: 6.9 ± 2.1 mm
RICA (far-wall): Maximal IMT of right internal carotid artery [1]: 4.1 ± 1.4 mm
RICA (near-wall): Maximal IMT of right internal carotid artery [1]: 4.7 ± 1.5 mm
Modified Rankin Scale Score (mRS) [2]: 3.1 ± 0.5
National Institute of Health Stroke Scale [2]: 5.5 ± 1.7
Modified Rankin Scale Score (mRS) [3]: 2.9 ± 0.3
National Institute of Health Stroke Scale [3]: 5.3 ± 1.5
Modified Rankin Scale Score (mRS) [4]: 2.7 ± 0.5
National Institute of Health Stroke Scale [4]: 4.1 ± 1.0
LCCA (far-wall): Maximal IMT of left common carotid artery [4]: 2.7 ± 1.4 mm
LCCA (near-wall): Maximal IMT of left common carotid artery [4]: 2.3 ± 1.3 mm
LICA (far-wall): Maximal IMT of left internal carotid artery [4]: 1.5 ± 1.1 mm
LICA (near-wall): Maximal IMT of left internal carotid artery [4]: 1.6 ± 1.3 mm
RCCA (far-wall): Maximal IMT of right common carotid artery [4]: 2.5 ± 1.1 mm
RCCA (near-wall): Maximal IMT of right common carotid artery [4]: 2.1 ± 0.9 mm
RICA (far-wall): Maximal IMT of right internal carotid artery [4]: 1.6 ± 0.9 mm
RICA (near-wall): Maximal IMT of right internal carotid artery [4]: 1.5 ± 1.2 mm
Modified Rankin Scale Score (mRS) [5]: 2.5 ± 0.5
National Institute of Health Stroke Scale [5]: 3.4 ± 0.8
Modified Rankin Scale Score (mRS) [6]: 2.4 ± 0.5
National Institute of Health Stroke Scale [6]: 2.9 ± 0.6
LCCA (far-wall): Maximal IMT of left common carotid artery [6]: 2.5 ± 0.7 mm
LCCA (near-wall): Maximal IMT of left common carotid artery [6]: 2.1 ± 0.7 mm
LICA (far-wall): Maximal IMT of left internal carotid artery [6]: 1.3 ± 0.7 mm
LICA (near-wall): Maximal IMT of left internal carotid artery [6]: 1.2 ± 1.0 mm
RCCA (far-wall): Maximal IMT of right common carotid artery [6]: 2.6 ± 0.9 mm
RCCA (near-wall): Maximal IMT of right common carotid artery [6]: 2.3 ± 0.8 mm
RICA (far-wall): Maximal IMT of right internal carotid artery [6]: 1.1 ± 0.7 mm
RICA (near-wall): Maximal IMT of right internal carotid artery [6]: 1.2 ± 0.6 mm
Modified Rankin Scale Score (mRS) [7]: 3.5 ± 0.5
National Institute of Health Stroke Scale [7]: 6.0 ± 2.2
LCCA (far-wall): Maximal IMT of left common carotid artery [8]: 7.1 ± 1.7 mm
LCCA (near-wall): Maximal IMT of left common carotid artery [8]: 7.0 ± 1.5 mm
LICA (far-wall): Maximal IMT of left internal carotid artery [8]: 5.8 ± 1.5 mm
LICA (near-wall): Maximal IMT of left internal carotid artery [8]: 6.1 ± 1.3 mm
RCCA (far-wall): Maximal IMT of right common carotid artery [8]: 7.9 ± 2.1 mm
RCCA (near-wall): Maximal IMT of right common carotid artery [8]: 7.2 ± 1.7 mm
RICA (far-wall): Maximal IMT of right internal carotid artery [8]: 4.3 ± 1.5 mm
RICA (near-wall): Maximal IMT of right internal carotid artery [8]: 5.1 ± 1.2 mm
Modified Rankin Scale Score (mRS) [9]: 2.5 ± 0.5
National Institute of Health Stroke Scale [9]: 4.9 ± 1.5
Modified Rankin Scale Score (mRS) [10]: 2.0 ± 0.5
National Institute of Health Stroke Scale [10]: 3.7 ± 1.1
Modified Rankin Scale Score (mRS) [11]: 1.6 ± 0.5
National Institute of Health Stroke Scale [11]: 2.3 ± 0.8
LCCA (far-wall): Maximal IMT of left common carotid artery [11]: 1.8 ± 0.7 mm
LCCA (near-wall): Maximal IMT of left common carotid artery [11]: 1.3 ± 0.7 mm
LICA (far-wall): Maximal IMT of left internal carotid artery [11]: 0.7 ± 0.3 mm
LICA (near-wall): Maximal IMT of left internal carotid artery [11]: 0.9 ± 0.5 mm
RCCA (far-wall): Maximal IMT of right common carotid artery [11]: 1.5 ± 0.6 mm
RCCA (near-wall): Maximal IMT of right common carotid artery [11]: 1.6 ± 0.8 mm
RICA (far-wall): Maximal IMT of right internal carotid artery [11]: 0.8 ± 0.3 mm

From patent publication US20250099491A1, “PREVENTION OR TREATMENT OF CARDIOVASCULAR DISEASES WITH HIGH PENETRATION PRODRUGS OF ASPIRIN AND OTHER NSAIDS” (Techfields Inc., priority 2022, published 2025)
